Data: patent publication US20050221337A1, “Microarrays and microspheres comprising oligosaccharides, complex carbohydrates or glycoproteins” (priority 2003, published 2005)

Experiments:
[1] = target: T1, Concanavalin A (ConA) (Canavalia ensiformis, UniProt P02866); assay: Carbohydrate microarray incubated with FITC-labeled ConA, fluorescence scan; assay type: binding; conditions: FITC-ConA 25 μg mL^−1, 1 hour, room temperature; 120 μm spots on maleimide-BSA slide
Source text: Protein-carbohydrate interactions were examined using the mannose/glucose specific lectin Concanavalin A (ConA). Microarrays were constructed through the maleimide derivatization of BSA coated glass slides to create a thiol-reactive surface (FIG. 1). Thiol derivatized mannose and galactose were printed as 120 μm spots using a microarray printing robot. The remaining maleimide groups were subsequently quenched with a solution of 3-mercaptopropionic acid to render the slides unreactive to cysteine containing proteins. The carbohydrate microarrays were incubated with a solution of FITC-labeled ConA. The arrays were thoroughly rinsed with buffer, dried by centrifugation and scanned with a fluorescence slide scanner. […] Utilizing proteins conjugated to fluorophores of non-overlapping excitation and-emission spectra enabled facile two-color detection. […] See Bidlingmaier, S.; Synder, M. Chemistry and Biology 2002, 9, 400. […]
Detection of protein-carbohydrate interactions: In experiments involving FITC labeled ConA (Sigma), the lectin was used at 25 μg mL^−1 in 10 mM HEPES-BSA buffer (pH 7.5, 1 mM CaCl2, 1 mM MnCl2, 100 mM NaCl, 1% (w/v) BSA). […] To visualize fluorescence, the slides were scanned using an ArrayWoRx fluorescence slide scanner (Applied Precision).

[2] = target: T1, Concanavalin A (ConA)
[3] = target: T2, cyanovirin-N (CVN) (Nostoc ellipsosporum, UniProt P81180); assay: High-mannose oligosaccharide microarray incubated with BODIPY-labeled CVN, fluorescence scan; assay type: binding, Nostoc elliposporum; conditions: for BODIPY-labeled CVN fluorescence (binding) on immobilized saccharide spots: BODIPY-CVN 25 μg mL-1, 1 hour, room temperature, BSA coated slide; for CVN spot fluorescence intensity relative to nonamannoside (normalized to background): higher printed concentrations 1 mM-0.5 mM (FIG. 9)
T2 sequence (P81180 1-101): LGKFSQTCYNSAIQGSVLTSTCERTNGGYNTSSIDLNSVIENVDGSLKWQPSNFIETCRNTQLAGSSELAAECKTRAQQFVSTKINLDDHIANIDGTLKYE
Method: Using the aforementioned thiol terminated linker, a series of high-mannose oligosaccharides were prepared (Scheme 6). Arrays were printed on a BSA coated slide, as above, varying the concentration of printed oligosaccharide, and blocked with 3-mercaptoproprionic acid.
It was of interest to establish whether the microarray platform may serve to probe relative affinities of CVN for the different high-mannose structures. A microarray containing the four oligosaccharide structures was prepared with carbohydrate concentrations ranging from 0.008 mM to 2 mM. […] At lower dilutions, however, this trend is reversed. This discrepancy from the isocalorimetry data can be explained by the density of covalently immobilized saccharide at saturating concentrations. We hypothesize that the size of the nonasaccharide, compared to the other structures immobilized, might sterically occlude reactive sites leading to decreased amounts of immobilized structure. As previously observed, two distinct CVN binding domains can each interact with a single α1,2-linked linear trimannoside. We reason that a higher surface concentrations of 3 permits this multivalent interaction to take place.
Functionalization of slides: SuperAldehyde slides (TeleChem International) were immersed in 50 mL phosphate buffered saline (PBS) containing 1% bovine serum albumin (BSA; w/v) and incubated overnight at room temperature. The slides were rinsed twice with distilled H2O (100 mL), twice with 95% ethanol (50 mL) and then dried under a stream of dry Ar. Thereafter the slides were immersed in 45 mL of anhydrous DMF (Aldrich) containing 65 mg succinimidyl-4-(Nmaleimidomethyl)cyclohexane-1-carboxyiate. (Pierce Chemical) and 100 mM N,N-Diisopropylethylamine (Aldrich). The slides were incubated in this solution for 24 hours at room temperature, washed 4 times with 95% ethanol (50 mL) and then stored in a vacuum dessicator until used for microarray fabrication.
Microarray fabrication: Thiol functionalized carbohydrates were incubated 1 hr at room temperature with 1 equivalent tris-(carboxyethyl)phosphine hydrochloride (TCEP) in 1×PBS, and printed on the maleimide derivitized glass slides using a MicroGrid TAS array printer. Prints were performed at 30% humidity using either a 16-pin or 32-pin format, with a spot size of 120 μm and a distance of 300 μm between the centers of adjacent spots. Thereafter, the slides were stored in a humid chamber at room temperature for 12 hours, washed 2 times with distilled H2O, and then incubated for 1 hour in 1 mM 3-mercaptopropionic acid in PBS (50 mL) to quench all remaining maleimide groups. The slides were washed three times with distilled H2O (50 mL), two times with 95% ethanol (50 mL) and then stored in a vacuum dessicator until used for binding experiments.
Detection of protein-carbohydrate interactions: In experiments involving FITC labeled ConA (Sigma), the lectin was used at 25 μg mL^−1 in 10 mM HEPES-BSA buffer (pH 7.5, 1 mM CaCl2, 1 mM MnCl2, 100 mM NaCl, 1% (w/v) BSA). In experiments involving BODIPY-labeled CVN, the CVN was used at 25 μg mL-1 in 10 mM PBS containing 1% BSA. For all incubations, 0.55 mL of protein solution was applied to the slide using a PC500 CoverWell incubation chamber (Grace BioLabs). Following a 1 hour incubation at room temperature, the slides were washed three times with 50 mL of the same buffer used in the incubation, twice with 50 mL distilled H2O and then centrifuged at 200 g for 5 minutes to ensure complete dryness. To visualize fluorescence, the slides were scanned using an ArrayWoRx fluorescence slide scanner (Applied Precision).

[4] = target: cyanovirin N (CV-N) (Nostoc ellipsosporum, UniProt P81180); assay: Fiber optic microsphere array incubated with BODIPY-labeled CV-N; assay type: binding; conditions: CV-N 50 μg mL^−1, five minutes; excitation 488 nm
Source text: Five synthetic carbohydrates (1,3-6) were immobilized on microspheres carrying a unique internal code for each structure. A small aliquot of each of the five dispersions was mixed together and used to microsphere array.
At five minutes the CV-N solution was removed and replaced with a fresh buffer solution. BODIPY excitation wavelength (488 nm) was passed through the optical fiber and BODIPY emission wavelengths were collected on the CCD camera. Three of the five structures (3,5,6) present were bound by CV-N in accordance with isothermal microcalorimetry studies P. H. Seeberger et al. Chemistry and Biology 2002, 9, 1109.

[5] = target: T3, CVN (Nostoc ellipsosporum, UniProt P81180); conditions: recent isothermocalorimetry and NMR study; read-out: Kd of CVN binding; cited from earlier work
T3 sequence (P81180 1-101): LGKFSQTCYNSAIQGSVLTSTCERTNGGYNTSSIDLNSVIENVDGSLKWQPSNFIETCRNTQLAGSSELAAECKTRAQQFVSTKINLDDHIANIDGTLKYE

[6] = system: HIV strains; conditions: natural and recombinant forms of CVN; cited from earlier work
[7] = system: host cells; conditions: natural and recombinant forms of CVN; cited from earlier work

Molecule	BODIPY-labeled CVN fluorescence (binding) on immobilized saccharide spots [3]	BODIPY-labeled CV-N binding to oligosaccharide-bearing beads [4]	CVN spot fluorescence intensity relative to nonamannoside (normalized to background) [3]	Kd [5] [nM]	also measured
O=C[C@H](O)[C@@H](O)[C@@H](O)[C@H](O)CO [compound 2, galactose]	no binding activity				FITC-labeled ConA fluorescence on immobilized saccharide spots [1]: no fluorescence; fluorescence of beads in dilution series of labeled ConA ([2]; labeled ConA 0 to 400 μg mL^−1, very high lectin concentrations (FIG. 18)): no increase in fluorescence; labeled ConA binding to saccharide-bearing beads (rhodamine fluorescence) ([2]; labeled ConA 50 μg mL^−1, five minutes): no ConA was observed
branched trimannoside [compound 4]	no binding activity				
hexamannoside [compound 5]	fluorescence was detected	bound by CV-N	higher fluorescence intensities than the nonamannoside		
linear trimannoside [compound 3]	fluorescence was detected	bound by CV-N	higher fluorescence intensities than the nonamannoside	3480	
nonamannoside [compound 6]	fluorescence was detected	bound by CV-N		270	CVN fluorescence signal in dilution series microarray at low printed concentrations ([3]; printed carbohydrate 0.008 mM to 2 mM (FIG. 8)): showed discernable fluorescence at concentrations where the signals of the other structures were unobservable
CVN: HIV-inactivating 11 kDa protein from Nostoc ellipsosporum that binds high-mannose oligosaccharides of gp120 (protein, UniProt P81180 1-101, looked up) Cyanovirin-N: LGKFSQTCYNSAIQGSVLTSTCERTNGGYNTSSIDLNSVIENVDGSLKWQPSNFIETCRNTQLAGSSELAAECKTRAQQFVSTKINLDDHIANIDGTLKYE					inactivation of HIV strains [6]: irreversibly inactivate a wide variety of HIV strains; toxicity to host cells [7]: minimal toxicity to host cells
